The structures appear in SMILES notation.

T1 sequence (P53350 21-346): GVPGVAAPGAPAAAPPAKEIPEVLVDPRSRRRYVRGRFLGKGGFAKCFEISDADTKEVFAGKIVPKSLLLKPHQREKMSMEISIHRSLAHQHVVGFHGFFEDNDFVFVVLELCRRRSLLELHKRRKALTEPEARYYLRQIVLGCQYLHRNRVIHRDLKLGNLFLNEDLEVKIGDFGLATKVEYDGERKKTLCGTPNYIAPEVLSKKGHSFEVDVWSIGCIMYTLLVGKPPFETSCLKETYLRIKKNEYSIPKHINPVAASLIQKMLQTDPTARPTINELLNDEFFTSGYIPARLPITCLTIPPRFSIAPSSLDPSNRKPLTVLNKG

One test concerns the target T1, PLK1 (Homo sapiens, UniProt P53350).
T1 construct: PLK kinase domain (amino acids 21-346 preceded by MKKGHHHHHHD); made in house; host or cells: baculovirus infected T. ni cells
The experiment in a line: Assay for inhibition of PLK1 (SPA kinase assay). In kind it is biochemical. The settings on record: 1 μM ATP, 2 nM PLK1 kinase domain. The method, boiled down: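 His-tagged PLK1 kinase domain (aa 21-346, baculovirus/T. ni) at 2 nM with 1 μM ATP plus 33P-γ-ATP and 1 μM biotinylated peptide in 25 mM HEPES pH 7.2, 15 mM MgCl2, 1 mM DTT, 0.15 mg/mL BSA; 1-1.5 h at 22° C. Streptavidin SPA capture read; percent inhibition versus DMSO, EDTA background.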
Regarding `C[C@@H](Oc1cc(-n2cnc3ccc(S(C)(=O)=O)cc32)sc1C(N)=O)c1cccc(OC2CCNCC2)c1Cl` [Example 60, 3-({(1R)-1-[2-chloro-3-(4-piperidineloxy)phenyl]ethyl}oxy)-5-[6-(methylsulfonyl)-1H-benzimidazol-1-yl]-2-thiophenecarboxamide], the “PLK1 pIC50” value is “+++ (pIC50>7)”.

Still in this test, the particulars now being: 1 μM ATP, 2 nM PLK1 kinase domain, read-out: PLK1 pIC50 (converted).
For the compound `C[C@@H](Oc1cc(-n2cnc3ccc(Cl)cc32)sc1C(N)=O)c1cccc(OC2CCN(C)CC2)c1Cl` [Example 53], the IC50 is less than 100 nM.

Regarding `C[C@@H](Oc1cc(-n2cnc3ccc(CS(C)(=O)=O)cc32)sc1C(N)=O)c1cccc(OC2CCNCC2)c1Cl` [Example 54, 3-({(1R)-1-[2-Chloro-3-(4-piperidinyloxy)phenyl]ethyl}oxy)-5-{6-[(methylsulfonyl)methyl]-1H-benzimidazol-1-yl}-2-thiophenecarboxamide], the IC50 was less than 100 nM.

In the case of `C[C@@H](Oc1cc(-n2cnc3ccc(CS(C)(=O)=O)cc32)sc1C(N)=O)c1cccc(OC2CCN(C)CC2)c1Cl` [Example 55, 3-[((1R)-1-{2-chloro-3-[(1-methyl-4-piperidinyl)oxy]phenyl}ethyl)oxy]-5,6-{6-[(methylsulfonyl)methyl]-1H-benzimidazol-1-yl}-2-thiophenecarboxamide], the IC50 was less than 100 nM.

For `C[C@@H](Oc1cc(-n2cnc3ccc(CS(C)(=O)=O)cc32)sc1C(N)=O)c1cccc(OCC2CCNCC2)c1Cl` [Example 56, 3-[((1R)-1-{2-chloro-3-[(4-piperidinylmethyl)oxy]phenyl}ethyl)oxy]-5-{6-[(methylsulfonyl)methyl]-1H-benzimidazol-1-yl}-2-thiophenecarboxamide], the IC50 was less than 100 nM.

On to `C[C@@H](Oc1cc(-n2cnc3ccc(CS(C)(=O)=O)cc32)sc1C(N)=O)c1cccc(OCC2CCCN2C)c1Cl` (stereo partly drawn) [Example 57, 3-({(1R)-1-[2-Chloro-3-({[(2S)-1-methyl-2-pyrrolidinyl]metliyl}oxy)phenyl]ethyl}oxy)-5-{6-[(methylsulfonyl)methyl]-1H-benzimidazol-1-yl}-2-thiophenecarboxamide], for which the IC50 is less than 100 nM.

Take `C[C@@H](Oc1cc(-n2cnc3cc(OC(F)(F)F)ccc32)sc1C(N)=O)c1cccc(OC2CCNCC2)c1Cl` [Example 61, 3-({(1R)-1-[2-chloro-3-(4-piperidinyloxy)phenyl]ethyl}oxy)-5-{5-[(trifluoromethyl)oxy]-1H-benzimidazol-1-yl}-2-thiophenecarboxamide]: the IC50 was less than 100 nM.

Regarding `C[C@@H](Oc1cc(-n2cnc3cc(OC(F)(F)F)ccc32)sc1C(N)=O)c1cccc(OC2CCN(C)CC2)c1Cl` [Example 62, 3-[((1R)-1-{2-chloro-3-[(1-methyl-4-piperidinyl)oxy]phenyl}ethyl)oxy]-5-{5-[(trifluoromethyl)oxy]-1H-benzimidazol-1-yl}-2-thiophenecarboxamide], the IC50 is less than 100 nM.

For the compound `C[C@@H](Oc1cc(-n2cnc3ccc(OC(F)(F)F)cc32)sc1C(N)=O)c1cccc(OC2CCNCC2)c1Cl` [Example 63, 3-({(1R)-1-[2-chloro-3-(4-piperidinyloxy)phenyl]ethyl}oxy)-5-{6-[(trifluoromethyl)oxy]-1H-benzimidazol-1-yl}-2-thiophenecarboxamide], the IC50 is less than 100 nM.

`C[C@@H](Oc1cc(-n2cnc3ccc(OC(F)(F)F)cc32)sc1C(N)=O)c1cccc(OC2CCN(C)CC2)c1Cl` [Example 64, 3-[((1R)-1-{2-chloro-3-[(1-methyl-4-piperidinyl)oxy]phenyl}ethyl)oxy]-5-{6-[(trifluoromethyl)oxy]-1H-benzimidazol-1-yl}-2-thiophenecarboxamide]: the IC50 is less than 100 nM.

Regarding `C[C@@H](Oc1cc(-n2cnc3cc(F)c(F)cc32)sc1C(N)=O)c1cccc(OC2CCNCC2)c1Cl` [Example 65, 3-({(1R)-1-[2-chloro-3-(4-piperidinyloxy)phenyl]ethyl}oxy)-5-(5,6-difluoro-1H-benzimidazol-1-yl)-2-thiophenecarboxamide], the IC50 is less than 100 nM.

As for `C[C@@H](Oc1cc(-n2cnc3cc(F)c(F)cc32)sc1C(N)=O)c1cccc(OC2CCN(C)CC2)c1Cl` [Example 66, 3-[((1R)-1-{2-chloro-3-[(1-methyl-4-piperidinyl)oxy]phenyl}ethyl)-oxy]-5-(5,6-difluoro-1H-benzimidazol-1-yl)-2-thiophenecarboxamide], the IC50 was less than 100 nM.

Regarding `C[C@@H](Oc1cc(-n2cnc3cc(Cl)c(F)cc32)sc1C(N)=O)c1cccc(OC2CCNCC2)c1Cl` [Example 67, 5-(5-Chloro-6-fluoro-1H-benzimidazol-1-yl)-3-({(1R)-1-[2-chloro-3-(4-piperidinyloxy)phenyl]ethyl}oxy)-2-thiophenecarboxamide], the IC50 is less than 100 nM.

`C[C@@H](Oc1cc(-n2cnc3cc(Cl)c(F)cc32)sc1C(N)=O)c1cccc(OC2CCN(C)CC2)c1Cl` [Example 68, 5-(5-Chloro-6-fluoro-1H-benzimidazol-1-yl)-3-[((1R)-1-{2-chloro-3-[(1-methyl-4-piperidinyl)oxy]phenyl}ethyl)oxy]-2-thiophenecarboxamide]: the IC50 was less than 100 nM.

Turning to `C[C@@H](Oc1cc(-n2cnc3cc(F)c(Cl)cc32)sc1C(N)=O)c1cccc(OC2CCNCC2)c1Cl` [Example 69, 5-(6-Chloro-5-fluoro-1H-benzimidazol-1-yl)-3-({(1R)-1-[2-chloro-3-(4-piperidinyloxy)phenyl]ethyl}oxy)-2-thiophenecarboxamide], the IC50 is less than 100 nM.

For `C[C@@H](Oc1cc(-n2cnc3cc(F)c(Cl)cc32)sc1C(N)=O)c1cccc(OC2CCN(C)CC2)c1Cl` [Example 70, 5-(6-Chloro-5-fluoro-1H-benzimidazol-1-yl)-3-[((1R)-1-{2-chloro-3-[(1-methyl-4-piperidinyl)oxy]phenyl}ethyl)oxy]-2-thiophenecarboxamide], the IC50 was less than 100 nM.

Turning to `C[C@@H](Oc1cc(-n2cnc3cc(Cl)c(Cl)cc32)sc1C(N)=O)c1cccc(OC2CCNCC2)c1Cl` [Example 71, 3-({(1R)-1-[2-Chloro-3-(4-piperidinyloxy)phenyl]ethyl}oxy)-5-(5,6-dichloro-1H-benzimidazol-1-yl)-2-thiophenecarboxamide], the IC50 was less than 100 nM.

As for `C[C@@H](Oc1cc(-n2cnc3cc(Cl)c(Cl)cc32)sc1C(N)=O)c1cccc(OC2CCN(C)CC2)c1Cl` [Example 72, 3-[((1R)-1-{2-chloro-3-[(1-methyl-4-piperidinyl)oxy]phenyl}ethyl)oxy]-5-(5,6-dichloro-1H-benzimidazol-1-yl)-2-thiophenecarboxamide], the IC50 is less than 100 nM.

On to `CC(Oc1cc(-n2cnc3cc(-c4cnn(C)c4)ccc32)sc1C(N)=O)c1ccnc(OC2CCN(C)CC2)c1` (stereo not drawn) [Example 80, 3-[(1-{2-[(1-Methyl-4-piperidinyl)oxy]-4-pyridinyl}ethyl)oxy]-5-[5-(1-methyl-1H-pyrazol-4-yl)-1H-benzimidazol-1-yl]-2-thiophenecarboxamide], for which the IC50 is less than 100 nM.

With `Cn1cc(-c2ccc3c(c2)ncn3-c2cc(OCc3cccc(OC4CCNCC4)c3)c(C(N)=O)s2)cn1` [Example 83, 5-[5-(1-Methyl-1H-pyrazol-4-yl)-1H-benzimidazol-1-yl]-3-({[3-(4-piperidinyloxy)phenyl]methyl}oxy)-2-thiophenecarboxamide], the IC50 was less than 100 nM.

For the compound `CN1CCC(Oc2cccc(COc3cc(-n4cnc5cc(-c6cnn(C)c6)ccc54)sc3C(N)=O)c2)CC1` [Example 84, 3-[({3-[(1-Methyl-4-piperidinyl)oxy]phenyl}methyl)oxy]-5-[5-(1-methyl-1H-pyrazol-4-yl)-1H-benzimidazol-1-yl]-2-thiophenecarboxamide], the IC50 is less than 100 nM.

Regarding `CC(Oc1cc(-n2cnc3cc(-c4cnn(C)c4)ccc32)sc1C(N)=O)c1cc(OC2CCNCC2)ccn1` (stereo not drawn) [Example 85, 5-[5-(1-Methyl-1H-pyrazol-4-yl)-1H-benzimidazol-1-yl]-3-({1-[4-(4-piperidinyloxy)-2-pyridinyl]ethyl}oxy)-2-thiophenecarboxamide], the IC50 is less than 100 nM.

As for `Cc1nnc(-c2ccc3c(c2)ncn3-c2cc(O[C@H](C)c3cccc(OC4CCNCC4)c3Cl)c(C(N)=O)s2)o1` [Example 87, 3-({(1R)-1-[2-Chloro-3-(4-piperidinyloxy)phenyl]ethyl}oxy)-5-[5-(5-methyl-1,3,4-oxadiazol-2-yl)-1H-benzimidazol-1-yl]-2-thiophenecarboxamide], the IC50 was less than 100 nM.

As for `Cc1nnc(-c2ccc3c(c2)ncn3-c2cc(O[C@H](C)c3cccc(OC4CCN(C)CC4)c3Cl)c(C(N)=O)s2)o1` [Example 88, 3-[((1R)-1-{2-chloro-3-[(1-methyl-4-piperidinyl)oxy]phenyl}ethyl)oxy]-5-[5-(5-methyl-1,3,4-oxadiazol-2-yl)-1H-benzimidazol-1-yl]-2-thiophenecarboxamide], the IC50 was less than 100 nM.
